The record followed here is US4568693A, “N-Naphthoylglycine derivatives” (Ayerst, McKenna & Harrison, Inc., priority 1981, dated 1986).

SMILES strings stand for the structures.

The subject of assay [1] is accumulation of dulcitol in the lenses. Kind of assay: galactosemic rats, dulcitol accumulation in the lens. It counts as in vivo, rat (Sprague-Dawley). As to conditions: 4 days, vs untreated galactosemic rats. From the text: The aldose reductase inhibiting property of the compounds of this invention and the utilization of the compounds in preventing, diminishing and alleviating diabetic complications are demonstrable in experiments using galactosemic rats, see Dvornik et al., cited above. Such experiments are exemplified hereinbelow after the listing of the following general comments pertaining to these experiments:
(a) Four or more groups of six male rats, 50-70 g, Sprague-Dawley strain, were used. The first group, the control group, was fed a mixture of laboratory chow (rodent laboratory chow, Purina) and glucose at 20% (w/w %) concentration. The untreated galactosemic group was fed a similar diet in which galactose is substituted for glucose. The third group was fed a diet prepared by mixing a given amount of the test compound with the galactose containing diet. The concentration of galactose in the diet of the treated groups was the same as that for the untreated galactosemic group.
(b) After four days, the animals were killed by decapitation. The eyeballs were removed and punctured with a razor blade; the freed lenses were rolled gently on filter paper and weighed. The sciatic nerves were dissected as completely as possible and weighed. Both tissues were frozen and can be kept up to two weeks before being analyzed for dulcitol.
(c) The polyol determination was performed by a modification of the procedure of M. Kraml and L. Cosyns, Clin. Biochem., 2, 373 (1969). Only two minor reagent changes were made: (a) The rinsing mixture was an aqueous 5% (w/v) trichloroacetic acid solution and (b) the stock solution was prepared by dissolving 25 mg of dulcitol in 100 ml of an aqueous trichloroacetic acid solution. [N.B.: For each experiment the average value found in the tissue from rats fed the glucose diet was subtracted from the individual values found in the corresponding rat tissue to obtain the amount of polyol accumulated].
The figures under L and N represent the percentage decrease of dulcitol accumulation in the tissues of the lens and sciatic nerve, respectively, for treated rats as compared to untreated rats.

For assay [2], the target named is T1, aldose reductase (Bos taurus, UniProt P16116).
T1 construct: the preparation of the enzyme from bovine lens; from tissue; host or cells: bovine lens
Kind of assay: in vitro aldose reductase inhibition (modified Hayman and Kinoshita procedure). Type of assay: biochemical, bovine. The note with it: for inhibition at 10 µM: 10^-5 molar, read-out: % Inhibition at Different Molar Concentration (in vitro), 10^-5; for inhibition at 1 µM: 10^-6 molar, read-out: % Inhibition at Different Molar Concentration (in vitro), 10^-6; for inhibition at 0.1 µM: 10^-7 molar, read-out: % Inhibition at Different Molar Concentration (in vitro), 10^-7. The source says: In the present case the procedure of Hayman and Kinoshita is modified in that the final chromatography step is omitted in the preparation of the enzyme from bovine lens.

As for `COc1ccc2c(C(=S)N(C)CC(=O)O)ccc(OC)c2c1C(F)(F)F` [CH3, H, 4-CH3 O, 5-CF3,6-CH3 O, N-[[4,6-dimethoxy-5-(trifluoromethyl)-1-naphthalenyl]thioxomethyl]-N-methylglycine], the “percentage decrease of dulcitol accumulation, lens (L)” value in assay [1] (144 mg/kg/day in diet) amounted to 33%.

As for `COC(=O)CN(C)C(=S)c1cccc2c(Br)cccc12` [Example 3, N-[(5-Bromo-1-naphthalenyl)thioxomethyl]-N-methylglycine Methyl Ester], the inhibition at 10 µM in assay [2] is 8%.

Regarding `COc1c(Cl)cc(C(=S)NCC(=O)O)c2ccccc12` [Example 32 (H, H, 3-Cl, 4-CH3 O), N-[(3-chloro-4-methoxy-1-naphthalenyl)thioxomethyl]glycine], in assay [2], the inhibition at 10 µM was found to be 61% and the inhibition at 1 µM was determined as 16%.

With `CN(CC(=O)O)C(=S)c1ccc(Br)c2ccccc12` [Example 33, N-[(4-bromo-1-naphthalenyl)thioxomethyl]-N-methylglycine], in assay [2], the inhibition at 10 µM stood at 91%, the inhibition at 1 µM was 77% and the inhibition at 0.1 µM came out at 32%.

Take `CN(CC(=O)O)C(=S)c1cccc2cccc(Br)c12` [Example 34, N-[(8-bromo-1-naphthalenyl)thioxomethyl]-N-methylglycine]: in assay [2], the inhibition at 10 µM stood at 88%, the inhibition at 1 µM is 75% and the inhibition at 0.1 µM is 24%.

As for `COc1cccc2c(C(=S)N(C)CC(=O)O)cccc12` [Example 35, N-[(5-methoxy-1-naphthalenyl)thioxomethyl]-N-methylglycine], in assay [2], the inhibition at 10 µM was 83%, the inhibition at 1 µM worked out at 64% and the inhibition at 0.1 µM came to 17%.

Consider `Cc1cccc2c(C(=S)N(C)CC(=O)O)cccc12` [Example 36, N-[(5-methyl-1-naphthalenyl)thioxomethyl]-N-methylglycine], for which, in assay [2], the inhibition at 10 µM turned out to be 89%, the inhibition at 1 µM amounted to 74% and the inhibition at 0.1 µM came to 26%.

Take `CCCCCOc1ccc2c(C(=S)N(C)CC(=O)O)cccc2c1Br` [Example 37, N-[(5-bromo-6-pentyloxy-1-naphthalenyl)thioxomethyl]-N-methylglycine]: in assay [2], the inhibition at 10 µM turned out to be 93%, the inhibition at 1 µM came to 91% and the inhibition at 0.1 µM turned out to be 55%.

With `CN(CC(=O)O)C(=S)c1cccc2c(C#N)cccc12` [Example 38, N-[(5-cyano-1-naphthalenyl)thioxomethyl]-N-methylglycine], in assay [2], the inhibition at 10 µM was determined as 89%, the inhibition at 1 µM was 79% and the inhibition at 0.1 µM was determined as 32%.

On to `CN(CC(=O)O)C(=S)c1cccc2c([N+](=O)[O-])cccc12` [Example 39, N-[(5-nitro-1-naphthalenyl)thioxomethyl]-N-methylglycine], for which, in assay [2], the inhibition at 10 µM worked out at 91%, the inhibition at 1 µM was 83% and the inhibition at 0.1 µM was 43%.

In the case of `Cc1ccc2c(C(=S)N(C)CC(=O)O)cccc2c1Br` [Example 42, N-[(5-bromo-6-methyl-1-naphthalenyl)thioxomethyl]-N-methylglycine], in assay [2], the inhibition at 10 µM stood at 92%, the inhibition at 1 µM was 88% and the inhibition at 0.1 µM worked out at 55%.

Take `CN(CC(=O)O)C(=S)c1cccc2ccccc12` [Example 43, N--((1naphthalenyl)thioxomethyl)-N--methylglycine]: in assay [2], the inhibition at 10 µM is 85%, the inhibition at 1 µM was determined as 51% and the inhibition at 0.1 µM came out at 13%.

As to `CN(CC(=O)O)C(=S)c1ccc(Cl)c2ccccc12` [Example 44, N-[(4-chloro-1-naphthalenyl)thioxomethyl]-N-methylglycine], in assay [2], the inhibition at 10 µM came to 88%, the inhibition at 1 µM stood at 73% and the inhibition at 0.1 µM was 25%.

For `COc1ccc2c(C(=S)N(C)CC(=O)O)cccc2c1I` [Example 47, N-[(5-iodo-6-methoxy-1-naphthalenyl)thioxomethyl]-N-methylglycine], in assay [2], the inhibition at 10 µM was 98%, the inhibition at 1 µM was found to be 95% and the inhibition at 0.1 µM is 72%.

On to `COc1ccc2c(C(=S)N(C)CC(=O)O)cccc2c1C#N` [Example 48, N-[(5-cyano-6-methoxy-1-naphthalenyl)thioxomethyl]-N-methylglycine], for which, in assay [2], the inhibition at 10 µM was 98%, the inhibition at 1 µM was determined as 93% and the inhibition at 0.1 µM turned out to be 74%.

For the molecule `COCCCOc1ccc2c(C(=S)N(C)CC(=O)O)cccc2c1Br` [Example 49, N-[[5-bromo-6-(3-methoxy-propoxy)-1-naphthalenyl]thioxomethyl]-N-methylglycine], in assay [2], the inhibition at 10 µM was 92%, the inhibition at 1 µM is 87% and the inhibition at 0.1 µM came out at 38%.

Regarding `C=C(C)c1cccc2c(C(=S)N(C)CC(=O)O)cccc12` [Example 50, N-[[5-(1-methylethenyl)-1-naphthalenyl]thioxomethyl]-N-methylglycine], in assay [2], the inhibition at 10 µM was determined as 92%, the inhibition at 1 µM was 74% and the inhibition at 0.1 µM is 19%.

Take `CC(C)c1cccc2c(C(=S)N(C)CC(=O)O)cccc12` [Example 51, N-[[5-(1-methylethyl)-1-naphthalenyl]thioxomethyl]-N-methylglycine]: in assay [2], the inhibition at 10 µM came out at 91%, the inhibition at 1 µM came out at 72% and the inhibition at 0.1 µM turned out to be 21%.

Consider `COc1ccc2c(C(=S)N(C)CC(=O)O)cccc2c1C(F)(F)F` [Example 52, N-[[5-(trifluoromethyl)-6-methoxy-1-naphthalenyl]thioxomethyl]-N-methylglycine], for which the “percentage decrease of dulcitol accumulation, lens (L)” value in assay [1] (26 mg/kg/day in diet) is recorded as 15%.

Take `CN(CC(=O)O)C(=S)c1cccc2c(Br)c(OCc3cccc(C(F)(F)F)c3)ccc12` [Example 53, N-[[5-bromo-6-[3-(trifluoromethyl)phenylmethoxy]-1-naphthalenyl]thioxomethyl]-N-methylglycine]: in assay [2], the inhibition at 10 µM is 86%, the inhibition at 1 µM was 37% and the inhibition at 0.1 µM worked out at 11%.

Regarding `CN(CC(=O)O)C(=S)c1cccc2c(Br)c(OCc3ccc(Cl)cc3)ccc12` [Example 53a, N-[[5-bromo-6-(4-chlorophenylmethoxy)-1-naphthalenyl]thioxomethyl]-N-methylglycine], in assay [2], the inhibition at 10 µM worked out at 88%, the inhibition at 1 µM is 44% and the inhibition at 0.1 µM is 4%.

As for `O=C(O)CNC(=S)c1cccc2c(Br)cccc12` [Example 54, N-[(5-bromo-1-naphthalenyl)thioxomethyl]glycine], in assay [2], the inhibition at 10 µM came out at 54% and the inhibition at 1 µM was determined as 14%.

Regarding `CCCN(CC(=O)O)C(=S)c1cccc2c(Br)cccc12` [Example 55, N-[(5-bromo-1-naphthalenyl)thioxomethyl]-N-propylglycine], in assay [2], the inhibition at 10 µM is 91%, the inhibition at 1 µM came to 70% and the inhibition at 0.1 µM was found to be 19%.

In the case of `C=CCN(CC(=O)O)C(=S)c1cccc2c(Br)cccc12` [Example 56, N-[(5-bromo-1-naphthalenyl)thioxomethyl]-N-(2-propylene)glycine], in assay [2], the inhibition at 10 µM is 92%, the inhibition at 1 µM is 77% and the inhibition at 0.1 µM was 27%.

For `CCN(CC(=O)O)C(=S)c1cccc2c(Br)cccc12` [Example 57, N-[(5-bromo-1-naphthalenyl)thioxomethyl]-N-ethylglycine], in assay [2], the inhibition at 10 µM was 85%, the inhibition at 1 µM was determined as 72% and the inhibition at 0.1 µM was 24%.

For the molecule `CCCCN(CC(=O)O)C(=S)c1cccc2c(Br)cccc12` [Example 58, N-[(5-bromo-1-naphthalenyl)thioxomethyl]-N-butylglycine], in assay [2], the inhibition at 10 µM turned out to be 86%, the inhibition at 1 µM came to 65% and the inhibition at 0.1 µM is 19%.

On to `O=C(O)CN(Cc1ccccc1)C(=S)c1cccc2c(Br)cccc12` [Example 59, N-[(5-bromo-1-naphthalenyl)thioxomethyl]-N-(phenylmethyl)glycine], for which, in assay [2], the inhibition at 10 µM stood at 86%, the inhibition at 1 µM came out at 69% and the inhibition at 0.1 µM came out at 20%.

For `CN(CC(=O)O)C(=O)c1cccc2c(Br)cccc12` [N-[(5-Bromo-1-naphthalenyl)carbonyl]-N-methylglycine], in assay [2], the inhibition at 10 µM stood at 64% and the inhibition at 1 µM turned out to be 21%.

With `COc1ccc2c(C(=O)N(C)CC(=O)O)cccc2c1C(F)(F)F` [N-[[5-(trifluoromethyl)-6-methoxy-1-naphthalenyl]carbonyl]-N-methylglycine], in assay [2], the inhibition at 10 µM was 94%, the inhibition at 1 µM is 93% and the inhibition at 0.1 µM was found to be 60%.
